Laboratory results reported in patent publication US8053470B2, “Process for the preparation of polynuclear ferric hydroxide-saccaride complexes” (Chongqing Pharmaceutical Research Institute Co., Ltd., priority 2005, dated 2011).

Experiment: Isoelectric point of the iron-saccharide complex: pH at which its aqueous solution turns turbid on drop-wise addition of diluted hydrochloric acid (USP 27 iron sucrose injection method)
Assay type: physicochemical
Conditions: examples described in text; Example 1 measured by method of 27th version of USP
From the text: The term “isoelectric point” herein refers to a pH value at which the aqueous solution of iron-saccharide complexes turns turbid during the drop-wise addition of a diluted hydrochloric acid solution.

Substance	isoelectric point of the final product
Polynuclear Ferric Hydroxide-fructose Complex [Example 11]	5.2
Polynuclear Ferric Hydroxide-sucrose Complex [Example 1]	4.4
